In ChEMBL document CHEMBL3885881, “DrugMatrix”:

Organism: Rattus norvegicus
Assay: DrugMatrix - Regimen: Daily Repeat
Type: toxicity, organism-based, Sprague-Dawley
Set-up: regimen Daily Repeat, gender Male, age 6-8 weeks
Details: in vivo, po, route oral GAVAGE, vehicle .5 % CMC; for ABSOLUTE BASOPHIL / ABSOLUTE EOSINOPHIL / ABSOLUTE LYMPHOCYTE / ABSOLUTE MONOCYTE / ABSOLUTE SEGMENTED NEUTROPHIL / BASOPHIL / EOSINOPHIL / ERYTHROCYTE COUNT / HEMATOCRIT / HEMOGLOBIN / LEUKOCYTE COUNT / LYMPHOCYTE / MEAN CORPUSCULAR HEMOGLOBIN / MEAN CORPUSCULAR HEMOGLOBIN CONCENTRATION / MEAN CORPUSCULAR VOLUME / MONOCYTE / NEUTROPHIL / NUCLEATED RED BLOOD CELLS / PLATELET COUNT: tissue Blood; for ALANINE AMINOTRANSFERASE / ALBUMIN / ALKALINE PHOSPHATASE / ASPARTATE AMINOTRANSFERASE / BLOOD UREA NITROGEN / CARBON DIOXIDE / CHLORIDE / CHOLESTEROL / CREATINE PHOSPHOKINASE / CREATININE / GLUCOSE / LACTATE DEHYDROGENASE / LIPASE / PHOSPHORUS / POTASSIUM / SODIUM / TOTAL BILIRUBIN / TOTAL PROTEIN / URIC ACID: tissue Plasma
[1] = 170 mg/kg, 72 h, dose level Low, time 3 day
[2] = 170 mg/kg, 120 h, dose level Low, time 5 day
[3] = 1700 mg/kg, 72 h, dose level High, time 3 day
[4] = 1700 mg/kg, 120 h, dose level High, time 5 day

O=C(O)c1ccccc1 [BENZOIC ACID]
ABSOLUTE BASOPHIL [1]: 0 CELLS/uL | ABSOLUTE EOSINOPHIL [1]: 0 CELLS/uL | ABSOLUTE LYMPHOCYTE [1]: 11616 CELLS/uL | ABSOLUTE MONOCYTE [1]: 0 CELLS/uL | ABSOLUTE SEGMENTED NEUTROPHIL [1]: 1417.33 CELLS/uL | BASOPHIL [1]: 0% | EOSINOPHIL [1]: 0% | ERYTHROCYTE COUNT [1]: 5.44 x10E6/uL | HEMATOCRIT [1]: 34.03% | HEMOGLOBIN [1]: 13.07 G/DL | LEUKOCYTE COUNT [1]: 13.03 x10E3/uL | LYMPHOCYTE [1]: 89.33% | MEAN CORPUSCULAR HEMOGLOBIN [1]: 24.03 pg | MEAN CORPUSCULAR HEMOGLOBIN CONCENTRATION [1]: 38.4 G/DL | MEAN CORPUSCULAR VOLUME [1]: 62.6 fL | MONOCYTE [1]: 0% | NEUTROPHIL [1]: 10.67% | NUCLEATED RED BLOOD CELLS [1]: 0 /100WBC | PLATELET COUNT [1]: 1319.33 x10E3/uL | ALANINE AMINOTRANSFERASE [1]: 59.67 u/L | ALBUMIN [1]: 4.13 G/DL | ALKALINE PHOSPHATASE [1]: 380 u/L | ASPARTATE AMINOTRANSFERASE [1]: 88 u/L | BLOOD UREA NITROGEN [1]: 17 mg/dL | CARBON DIOXIDE [1]: 29.33 mmol/L | CHLORIDE [1]: 100.67 MEQ/L | CHOLESTEROL [1]: 99 mg/dL | CREATINE PHOSPHOKINASE [1]: 286 u/L | CREATININE [1]: 0.23 mg/dL | GLUCOSE [1]: 150 mg/dL | LACTATE DEHYDROGENASE [1]: 280 u/L | LIPASE [1]: 10 u/L | PHOSPHORUS [1]: 13.27 mg/dL | POTASSIUM [1]: 6.52 MEQ/L | SODIUM [1]: 146.37 MEQ/L | TOTAL BILIRUBIN [1]: 0.17 mg/dL | TOTAL PROTEIN [1]: 5.97 G/DL | URIC ACID [1]: 1.6 mg/dL | ABSOLUTE BASOPHIL [2]: 0 CELLS/uL | ABSOLUTE EOSINOPHIL [2]: 64 CELLS/uL | ABSOLUTE LYMPHOCYTE [2]: 17040 CELLS/uL | ABSOLUTE MONOCYTE [2]: 0 CELLS/uL | ABSOLUTE SEGMENTED NEUTROPHIL [2]: 1696 CELLS/uL | BASOPHIL [2]: 0% | EOSINOPHIL [2]: 0.33% | ERYTHROCYTE COUNT [2]: 5.48 x10E6/uL | HEMATOCRIT [2]: 35.33% | HEMOGLOBIN [2]: 13.8 G/DL | LEUKOCYTE COUNT [2]: 18.8 x10E3/uL | LYMPHOCYTE [2]: 90.67% | MEAN CORPUSCULAR HEMOGLOBIN [2]: 25.23 pg | MEAN CORPUSCULAR HEMOGLOBIN CONCENTRATION [2]: 39.07 G/DL | MEAN CORPUSCULAR VOLUME [2]: 64.5 fL | MONOCYTE [2]: 0% | NEUTROPHIL [2]: 9% | NUCLEATED RED BLOOD CELLS [2]: 0 /100WBC | PLATELET COUNT [2]: 1165 x10E3/uL | ALANINE AMINOTRANSFERASE [2]: 57.33 u/L | ALBUMIN [2]: 4.23 G/DL | ALKALINE PHOSPHATASE [2]: 352 u/L | ASPARTATE AMINOTRANSFERASE [2]: 96.67 u/L | BLOOD UREA NITROGEN [2]: 15.67 mg/dL | CARBON DIOXIDE [2]: 24 mmol/L | CHLORIDE [2]: 103.67 MEQ/L | CHOLESTEROL [2]: 79 mg/dL | CREATINE PHOSPHOKINASE [2]: 445 u/L | CREATININE [2]: 0.21 mg/dL | GLUCOSE [2]: 164.67 mg/dL | LACTATE DEHYDROGENASE [2]: 554.67 u/L | LIPASE [2]: 9.67 u/L | PHOSPHORUS [2]: 12.87 mg/dL | POTASSIUM [2]: 6.28 MEQ/L | SODIUM [2]: 144.9 MEQ/L | TOTAL BILIRUBIN [2]: 0.23 mg/dL | TOTAL PROTEIN [2]: 6.17 G/DL | URIC ACID [2]: 2.2 mg/dL | ABSOLUTE BASOPHIL [3]: 0 CELLS/uL | ABSOLUTE EOSINOPHIL [3]: 95.33 CELLS/uL | ABSOLUTE LYMPHOCYTE [3]: 13599.67 CELLS/uL | ABSOLUTE MONOCYTE [3]: 51.33 CELLS/uL | ABSOLUTE SEGMENTED NEUTROPHIL [3]: 1753.67 CELLS/uL | BASOPHIL [3]: 0% | EOSINOPHIL [3]: 0.67% | ERYTHROCYTE COUNT [3]: 6 x10E6/uL | HEMATOCRIT [3]: 35.93% | HEMOGLOBIN [3]: 14.17 G/DL | LEUKOCYTE COUNT [3]: 15.5 x10E3/uL | LYMPHOCYTE [3]: 87.67% | MEAN CORPUSCULAR HEMOGLOBIN [3]: 23.6 pg | MEAN CORPUSCULAR HEMOGLOBIN CONCENTRATION [3]: 39.43 G/DL | MEAN CORPUSCULAR VOLUME [3]: 59.9 fL | MONOCYTE [3]: 0.33% | NEUTROPHIL [3]: 11.33% | NUCLEATED RED BLOOD CELLS [3]: 0 /100WBC | PLATELET COUNT [3]: 1304 x10E3/uL | ALANINE AMINOTRANSFERASE [3]: 84.67 u/L | ALBUMIN [3]: 4.3 G/DL | ALKALINE PHOSPHATASE [3]: 341.67 u/L | ASPARTATE AMINOTRANSFERASE [3]: 125.33 u/L | BLOOD UREA NITROGEN [3]: 16 mg/dL | CARBON DIOXIDE [3]: 30.67 mmol/L | CHLORIDE [3]: 97.33 MEQ/L | CHOLESTEROL [3]: 63.67 mg/dL | CREATINE PHOSPHOKINASE [3]: 240.33 u/L | CREATININE [3]: 0.2 mg/dL | GLUCOSE [3]: 149 mg/dL | LACTATE DEHYDROGENASE [3]: 314.33 u/L | LIPASE [3]: 9.33 u/L | PHOSPHORUS [3]: 13.87 mg/dL | POTASSIUM [3]: 6.31 MEQ/L | SODIUM [3]: 144.83 MEQ/L | TOTAL BILIRUBIN [3]: 0.23 mg/dL | TOTAL PROTEIN [3]: 5.73 G/DL | URIC ACID [3]: 1.6 mg/dL | ABSOLUTE BASOPHIL [4]: 0 CELLS/uL | ABSOLUTE EOSINOPHIL [4]: 54.33 CELLS/uL | ABSOLUTE LYMPHOCYTE [4]: 15272.67 CELLS/uL | ABSOLUTE MONOCYTE [4]: 230 CELLS/uL | ABSOLUTE SEGMENTED NEUTROPHIL [4]: 2109.67 CELLS/uL | BASOPHIL [4]: 0% | EOSINOPHIL [4]: 0.33% | ERYTHROCYTE COUNT [4]: 5.71 x10E6/uL | HEMATOCRIT [4]: 34.87% | HEMOGLOBIN [4]: 14.07 G/DL | LEUKOCYTE COUNT [4]: 17.67 x10E3/uL | LYMPHOCYTE [4]: 86.33% | MEAN CORPUSCULAR HEMOGLOBIN [4]: 24.67 pg | MEAN CORPUSCULAR HEMOGLOBIN CONCENTRATION [4]: 40.33 G/DL | MEAN CORPUSCULAR VOLUME [4]: 61.07 fL | MONOCYTE [4]: 1.33% | NEUTROPHIL [4]: 12% | NUCLEATED RED BLOOD CELLS [4]: 0 /100WBC | PLATELET COUNT [4]: 1192 x10E3/uL | ALANINE AMINOTRANSFERASE [4]: 71 u/L | ALBUMIN [4]: 4.37 G/DL | ALKALINE PHOSPHATASE [4]: 303 u/L | ASPARTATE AMINOTRANSFERASE [4]: 113.33 u/L | BLOOD UREA NITROGEN [4]: 18.67 mg/dL | CARBON DIOXIDE [4]: 27.67 mmol/L | CHLORIDE [4]: 103.33 MEQ/L | CHOLESTEROL [4]: 67.33 mg/dL | CREATINE PHOSPHOKINASE [4]: 298.67 u/L | CREATININE [4]: 0.19 mg/dL | GLUCOSE [4]: 164.33 mg/dL | LACTATE DEHYDROGENASE [4]: 269.33 u/L | LIPASE [4]: 10 u/L | PHOSPHORUS [4]: 14 mg/dL | POTASSIUM [4]: 6.25 MEQ/L | SODIUM [4]: 149.6 MEQ/L | TOTAL BILIRUBIN [4]: 0.2 mg/dL | TOTAL PROTEIN [4]: 5.8 G/DL | URIC ACID [4]: 1.67 mg/dL
